In US7342122B2, “Bisphosphonate complexes” (priority 2003, dated 2008):

Experiments:
St-4 = test: Cell growth inhibition, human stomach cancer St-4; assay type: cell-based; conditions: St-4, human stomach cancer
Experimental: (§1) KB cells were purchased from Human Science Research Resource Bank (Osaka, Japan). The cells were cultured in Earle's MEM (GIBCO BRL) containing 10% FBS (Bio Whittaker) at 37° C. under 5% CO2. After 24 hours the test compounds were added to the cells at the indicated concentrations. 72 hours later the cells were stained with tripan blue and counted manually. IC50 is calculated as the concentration (aqueous solution) of complex required to inhibit growth of cells by 50%.
(§2) In a similar fashion a representative number of examples of compounds of the invention were tested for their ability to inhibit the growth/proliferation of cell types representing a number of different cancers. The results are provided in Tables 4-13, below, which provide the Inhibition Constants (IC50, μM) for each compound across various cell lines.

MCF-7 = test: Cell growth inhibition, breast cancer cell line MCF-7; assay type: cell-based; conditions: MCF-7, breast cancer cell line
Experimental: as §1, §2

NCI-H460 = test: Cell growth inhibition, lung cancer cell line NCI-H460; assay type: cell-based
Experimental: as §1, §2

BSY-1 = test: Cell growth inhibition, breast cancer cell line BSY-1; assay type: cell-based; conditions: BSY-1, breast cancer cell line
Experimental: as §1, §2

SNB-75 = test: Cell growth inhibition, brain cancer cell line SNB-75; assay type: cell-based; conditions: SNB-75, brain cancer cell line
Experimental: as §1, §2

NCI-H226 = test: Cell growth inhibition, lung cancer cell line NCI-H226; assay type: cell-based
Experimental: as §1, §2

A549 = test: Cell growth inhibition, lung cancer cell line A549; assay type: cell-based
Experimental: as §1, §2

OVCAR-3 = test: Cell growth inhibition, ovarian cancer cell line OVCAR-3; assay type: cell-based; conditions: OVCAR-3, ovarian cancer cell line
Experimental: as §1, §2

OVCAR-4 = test: Cell growth inhibition, ovarian cancer cell line OVCAR-4; assay type: cell-based; conditions: OVCAR-4, ovarian cancer cell line
Experimental: as §1, §2

OVCAR-5 = test: Cell growth inhibition, ovarian cancer cell line OVCAR-5; assay type: cell-based; conditions: OVCAR-5, ovarian cancer cell line
Experimental: as §1, §2

LOX-IMVI = test: Cell growth inhibition, melanoma cell line LOX-IMVI; assay type: cell-based
Experimental: as §1, §2

DMS273 = test: Cell growth inhibition, lung cancer cell line DMS273; assay type: cell-based
Experimental: as §1, §2

HCT-116 = test: Cell growth inhibition, colon cancer cell line HCT-116; assay type: cell-based; conditions: HCT-116, colon cancer cell line
Experimental: as §1, §2

SF-268 = test: Cell growth inhibition, brain cancer cell line SF-268; assay type: cell-based; conditions: SF-268, brain cancer cell line
Experimental: as §1, §2

MKN74 = test: Cell growth inhibition, human stomach cancer MKN74; assay type: cell-based
Experimental: as §1, §2

MKN1 = test: Cell growth inhibition, human stomach cancer MKN1; assay type: cell-based
Experimental: as §1, §2

HBC-5 = test: Cell growth inhibition, breast cancer cell line HBC-5; assay type: cell-based; conditions: HBC-5, breast cancer cell line
Experimental: as §1, §2

HT-29 = test: Cell growth inhibition, colon cancer cell line HT-29; assay type: cell-based; conditions: HT-29, colon cancer cell line
Experimental: as §1, §2

KM-12 = test: Cell growth inhibition, colon cancer cell line KM-12; assay type: cell-based; conditions: KM-12, colon cancer cell line
Experimental: as §1, §2

DMS114 = test: Cell growth inhibition, lung cancer cell line DMS114; assay type: cell-based
Experimental: as §1, §2

NCI-H23 = test: Cell growth inhibition, lung cancer cell line NCI-H23; assay type: cell-based
Experimental: as §1, §2

SK-OV-3 = test: Cell growth inhibition, ovarian cancer cell line SK-OV-3; assay type: cell-based; conditions: SK-OV-3, ovarian cancer cell line
Experimental: as §1, §2

HCC2998 = test: Cell growth inhibition, colon cancer cell line HCC2998; assay type: cell-based
Experimental: as §1, §2

MDA-MB-231 = test: Cell growth inhibition, breast cancer cell line MDA-MB-231; assay type: cell-based; conditions: MDA-MB-231, breast cancer cell line
Experimental: as §1, §2

NCI-H522 = test: Cell growth inhibition, lung cancer cell line NCI-H522; assay type: cell-based
Experimental: as §1, §2

SNB-78 = test: Cell growth inhibition, brain cancer cell line SNB-78; assay type: cell-based; conditions: SNB-78, brain cancer cell line
Experimental: as §1, §2

PC-3 = test: Cell growth inhibition, prostatic cancer PC-3; assay type: cell-based; conditions: PC-3, prostatic cancer
Experimental: as §1, §2

HCT-15 = test: Cell growth inhibition, colon cancer cell line HCT-15; assay type: cell-based; conditions: HCT-15, colon cancer cell line
Experimental: as §1, §2

U251 = test: Cell growth inhibition, brain cancer cell line U251; assay type: cell-based
Experimental: as §1, §2

MKN28 = test: Cell growth inhibition, human stomach cancer MKN28; assay type: cell-based
Experimental: as §1, §2

MKN45 = test: Cell growth inhibition, human stomach cancer MKN45; assay type: cell-based
Experimental: as §1, §2

DU-145 = test: Cell growth inhibition, prostatic cancer DU-145; assay type: cell-based, human; conditions: DU-145, prostatic cancer
Experimental: as §1, §2

OVCAR-8 = test: Cell growth inhibition, ovarian cancer cell line OVCAR-8; assay type: cell-based; conditions: OVCAR-8, ovarian cancer cell line
Experimental: as §1, §2

RXF-631L = test: Cell growth inhibition, renal cancer RXF-631L; assay type: cell-based
Experimental: as §1, §2

[1] = test system: all cell types (cancer cell lines of Tables 4-12); test: Cell growth inhibition, mean over all cell types of the panel; assay type: cell-based; conditions: mean over all cell lines of Tables 4-12
Experimental: as §1, §2

MKN7 = test: Cell growth inhibition, human stomach cancer MKN7; assay type: cell-based
Experimental: as §1, §2

ACHN = test: Cell growth inhibition, renal cancer ACHN; assay type: cell-based
Experimental: as §1, §2

SF-295 = test: Cell growth inhibition, brain cancer cell line SF-295; assay type: cell-based; conditions: SF-295, brain cancer cell line
Experimental: as §1, §2

SF-539 = test: Cell growth inhibition, brain cancer cell line SF-539; assay type: cell-based; conditions: SF-539, brain cancer cell line
Experimental: as §1, §2

HBC-4 = test: Cell growth inhibition, breast cancer cell line HBC-4; assay type: cell-based; conditions: HBC-4, breast cancer cell line
Experimental: as §1, §2

KB cells = test: In vitro assay, cell growth inhibition (KB cells); assay type: cell-based; conditions: 72 hours
Experimental: as §1

## cis-Pt (NH3)2(Pyrophosphate) [Example 8]
St-4
  log10 IC50 (M): -4.61
MCF-7
  log10 IC50 (M): -4.77
NCI-H460
  log10 IC50 (M): -5.22
BSY-1
  log10 IC50 (M): -5.2
SNB-75
  log10 IC50 (M): -4.93
NCI-H226
  log10 IC50 (M): -4.64
A549
  log10 IC50 (M): -4.79
OVCAR-3
  log10 IC50 (M): -4.69
OVCAR-4
  log10 IC50 (M): -4.83
OVCAR-5
  log10 IC50 (M): -4.52
LOX-IMVI
  log10 IC50 (M): -4.85
DMS273
  log10 IC50 (M): -4.97
HCT-116
  log10 IC50 (M): -4.58
SF-268
  log10 IC50 (M): -5.11
MKN74
  log10 IC50 (M): -4.5
MKN1
  log10 IC50 (M): -5.18
HBC-5
  log10 IC50 (M): -5.57
HT-29
  log10 IC50 (M): -4.44
KM-12
  log10 IC50 (M): -4.43
DMS114
  log10 IC50 (M): -4.85
NCI-H23
  log10 IC50 (M): -5.2
SK-OV-3
  log10 IC50 (M): -4.65
HCC2998
  log10 IC50 (M): -4.57
MDA-MB-231
  log10 IC50 (M): -4.35
NCI-H522
  log10 IC50 (M): -5.16
SNB-78
  log10 IC50 (M): -4.61
PC-3
  log10 IC50 (M): -4.45
HCT-15
  log10 IC50 (M): -4.51
U251
  log10 IC50 (M): -4.64
MKN28
  log10 IC50 (M): -4.52
MKN45
  log10 IC50 (M): -4.91
DU-145
  log10 IC50 (M): -5.29
OVCAR-8
  log10 IC50 (M): -4.72
RXF-631L
  log10 IC50 (M): -4.74
[1]
  log10 IC50 (M): -4.83
MKN7
  log10 IC50 (M): -4.76
ACHN
  log10 IC50 (M): -5.37
SF-295
  log10 IC50 (M): -5.22
SF-539
  log10 IC50 (M): -5.17
HBC-4
  log10 IC50 (M): -4.83

## [Cl-].[Cl-].c1cc[n+]2c(c1)-c1cccc[n+]1[Pd-2]21[NH2+]CC[NH+]1Cc1c2ccccc2cc2ccccc12 [Example 5, [Pd(bpy)(Aten)]Cl2]
St-4
  log10 IC50 (M): -5.12
MCF-7
  log10 IC50 (M): -5.28
NCI-H460
  log10 IC50 (M): -5.86
BSY-1
  log10 IC50 (M): -5.34
SNB-75
  log10 IC50 (M): -5.16
NCI-H226
  log10 IC50 (M): -5.41
A549
  log10 IC50 (M): -4.88
OVCAR-3
  log10 IC50 (M): -4.95
OVCAR-4
  log10 IC50 (M): -5.06
OVCAR-5
  log10 IC50 (M): -5.3
LOX-IMVI
  log10 IC50 (M): -5.15
DMS273
  log10 IC50 (M): -5.24
HCT-116
  log10 IC50 (M): -5.38
SF-268
  log10 IC50 (M): -5.27
MKN74
  log10 IC50 (M): -5.33
MKN1
  log10 IC50 (M): -5.28
HBC-5
  log10 IC50 (M): -4.98
HT-29
  log10 IC50 (M): -5.25
KM-12
  log10 IC50 (M): -5.22
DMS114
  log10 IC50 (M): -5.28
NCI-H23
  log10 IC50 (M): -4.88
SK-OV-3
  log10 IC50 (M): -5.1
HCC2998
  log10 IC50 (M): -5.54
KB cells; 1 μg/ml
  KB cells remaining/growth in percent (Table 2, untitled): 86.9%
KB cells; 3 μg/mL
  KB cells remaining/growth in percent (Table 2, untitled): 81.4%
KB cells; 10 μg/mL
  KB cells remaining/growth in percent (Table 2, untitled): 75.1%
KB cells; 30 μg/mL
  KB cells remaining/growth in percent (Table 2, untitled): 44.7%
KB cells; 100 μg/mL
  KB cells remaining/growth in percent (Table 2, untitled): 12.3%
KB cells; concentration to inhibit growth of cells by 50%
  IC50: 36 µM
MDA-MB-231
  log10 IC50 (M): -5.29
NCI-H522
  log10 IC50 (M): -5.22
SNB-78
  log10 IC50 (M): -4.67
PC-3
  log10 IC50 (M): -4.9
HCT-15
  log10 IC50 (M): -5.14
U251
  log10 IC50 (M): -5
MKN28
  log10 IC50 (M): -4.86
MKN45
  log10 IC50 (M): -5.08
DU-145
  log10 IC50 (M): -5.1
OVCAR-8
  log10 IC50 (M): -5.13
RXF-631L
  log10 IC50 (M): -5.43
[1]
  log10 IC50 (M): -5.18
MKN7
  log10 IC50 (M): -5.04
ACHN
  log10 IC50 (M): -5.22
SF-295
  log10 IC50 (M): -5.31
SF-539
  log10 IC50 (M): -5.36
HBC-4
  log10 IC50 (M): -4.91

## Pt(dach)-IP6 [Example 10]
St-4
  log10 IC50 (M): -4.3
MCF-7
  log10 IC50 (M): -5.32
NCI-H460
  log10 IC50 (M): -5.19
BSY-1
  log10 IC50 (M): -4.56
SNB-75
  log10 IC50 (M): -4.86
NCI-H226
  log10 IC50 (M): -5.08
A549
  log10 IC50 (M): -5.21
OVCAR-3
  log10 IC50 (M): -4.9
OVCAR-4
  log10 IC50 (M): -5.01
OVCAR-5
  log10 IC50 (M): -4.78
LOX-IMVI
  log10 IC50 (M): -5.31
DMS273
  log10 IC50 (M): -6.27
HCT-116
  log10 IC50 (M): -5.33
SF-268
  log10 IC50 (M): -4.52
MKN74
  log10 IC50 (M): -4.15
MKN1
  log10 IC50 (M): -4.89
HBC-5
  log10 IC50 (M): -5.4
HT-29
  log10 IC50 (M): -4.65
KM-12
  log10 IC50 (M): -4.23
DMS114
  log10 IC50 (M): -4.26
NCI-H23
  log10 IC50 (M): -4.95
SK-OV-3
  log10 IC50 (M): -4.28
HCC2998
  log10 IC50 (M): -4.7
MDA-MB-231
  log10 IC50 (M): -4.67
NCI-H522
  log10 IC50 (M): -5.17
SNB-78
  log10 IC50 (M): -4.48
PC-3
  log10 IC50 (M): -4.46
HCT-15
  log10 IC50 (M): -5.14
U251
  log10 IC50 (M): -4.69
MKN28
  log10 IC50 (M): -4.19
MKN45
  log10 IC50 (M): -6.21
DU-145
  log10 IC50 (M): -5.03
OVCAR-8
  log10 IC50 (M): -4.57
RXF-631L
  log10 IC50 (M): -4.39
[1]
  log10 IC50 (M): -4.86
MKN7
  log10 IC50 (M): -4.17
ACHN
  log10 IC50 (M): -5.21
SF-295
  log10 IC50 (M): -4.67
SF-539
  log10 IC50 (M): -5.14
HBC-4
  log10 IC50 (M): -5.07
